Assay results from patent publication US20260138961A1, “MODULATORS OF MITOCHONDRIAL DNA REPLICATION” (Pretzel Therapeutics, Inc., priority 2022, published 2026).

target: T1, POLγ W748S + E1143G (Homo sapiens, UniProt P54098, E1143G/W748S); assay: DNA polymerization assay, W748S + E1143G mutant; format: biochemical; conditions: stimulation of polymerase activity, primed M13mp18 ssDNA, 37° C. 2 hours
T1 sequence (P54098 1-1239 W748S/E1143G): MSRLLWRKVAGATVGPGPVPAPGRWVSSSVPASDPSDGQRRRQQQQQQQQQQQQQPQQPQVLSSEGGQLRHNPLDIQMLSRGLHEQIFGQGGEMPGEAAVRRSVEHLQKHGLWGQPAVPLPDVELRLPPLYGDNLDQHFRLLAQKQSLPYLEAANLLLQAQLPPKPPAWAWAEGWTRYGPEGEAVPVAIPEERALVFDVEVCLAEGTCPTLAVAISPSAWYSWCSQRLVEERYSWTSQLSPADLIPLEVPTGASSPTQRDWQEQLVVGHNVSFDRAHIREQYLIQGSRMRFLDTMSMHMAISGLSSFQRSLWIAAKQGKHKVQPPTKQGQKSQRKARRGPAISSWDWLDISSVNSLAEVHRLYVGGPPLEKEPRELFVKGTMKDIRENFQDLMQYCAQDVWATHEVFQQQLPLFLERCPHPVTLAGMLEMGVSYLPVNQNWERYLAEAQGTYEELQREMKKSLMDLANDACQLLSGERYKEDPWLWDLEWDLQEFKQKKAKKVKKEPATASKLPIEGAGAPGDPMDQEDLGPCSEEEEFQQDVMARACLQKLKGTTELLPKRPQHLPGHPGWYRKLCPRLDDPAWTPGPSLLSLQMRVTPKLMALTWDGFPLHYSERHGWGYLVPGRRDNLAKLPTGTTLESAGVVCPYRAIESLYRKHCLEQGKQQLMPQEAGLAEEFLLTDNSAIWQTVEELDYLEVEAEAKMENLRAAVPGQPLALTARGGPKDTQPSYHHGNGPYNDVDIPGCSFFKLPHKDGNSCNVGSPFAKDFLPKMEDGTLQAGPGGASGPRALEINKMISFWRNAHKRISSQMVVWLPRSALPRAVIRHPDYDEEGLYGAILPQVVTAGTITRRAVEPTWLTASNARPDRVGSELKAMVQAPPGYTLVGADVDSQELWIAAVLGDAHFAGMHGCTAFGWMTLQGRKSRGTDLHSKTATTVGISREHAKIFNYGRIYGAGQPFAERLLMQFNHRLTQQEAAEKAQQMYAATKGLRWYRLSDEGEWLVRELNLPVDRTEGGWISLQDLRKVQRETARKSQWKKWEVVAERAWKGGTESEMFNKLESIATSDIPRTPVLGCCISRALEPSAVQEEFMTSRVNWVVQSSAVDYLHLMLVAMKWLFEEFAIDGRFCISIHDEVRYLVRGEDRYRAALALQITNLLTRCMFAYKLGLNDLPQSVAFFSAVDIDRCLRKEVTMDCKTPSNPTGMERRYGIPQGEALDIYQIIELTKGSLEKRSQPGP
T1 sequence (Q9UHN1 1-485 partner): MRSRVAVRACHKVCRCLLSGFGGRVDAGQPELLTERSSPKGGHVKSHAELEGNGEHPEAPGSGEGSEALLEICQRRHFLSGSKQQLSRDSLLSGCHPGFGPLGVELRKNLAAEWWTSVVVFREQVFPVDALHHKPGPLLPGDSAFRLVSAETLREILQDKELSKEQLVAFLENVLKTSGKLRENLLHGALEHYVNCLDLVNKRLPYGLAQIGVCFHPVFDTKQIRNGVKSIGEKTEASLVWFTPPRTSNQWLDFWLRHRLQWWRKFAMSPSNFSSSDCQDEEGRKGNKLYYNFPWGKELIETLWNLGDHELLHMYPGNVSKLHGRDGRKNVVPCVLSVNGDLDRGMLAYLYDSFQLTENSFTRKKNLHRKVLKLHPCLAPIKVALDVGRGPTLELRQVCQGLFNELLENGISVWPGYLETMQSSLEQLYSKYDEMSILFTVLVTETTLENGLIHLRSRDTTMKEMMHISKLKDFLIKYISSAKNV

Row | AC50 | SMILES
1 | 700 nM | Cc1cc(S(=O)(=O)Nc2csc(-c3ccccc3)n2)c(C)cc1Cl [Example 81, 4-chloro-2,5-dimethyl-N-(2-phenylthiazol-4-yl)benzenesulfonamide]
2 | > 100000 nM | Cc1csc(-c2ccccc2NS(=O)(=O)c2cc(C)c(Cl)cc2C)n1 [Example 80, 4-chloro-2,5-dimethyl-N-(2-(4-methylthiazol-2-yl)phenyl)benzenesulfonamide]
3 | 5000 nM | Cc1cc(S(=O)(=O)Nc2cccc(-c3ncc(CN(C)C)s3)c2)c(C)cc1Cl [Example 87, 4-chloro-N-(3-(5-((dimethylamino)methyl)thiazol-2-yl)phenyl)-2,5-dimethylbenzenesulfonamide]
4 | 800 nM | Cc1cc(S(=O)(=O)Nc2cccc(-c3ncc(CO)s3)c2)c(C)cc1Cl [Example 89, 4-chloro-N-(3-(5-(hydroxymethyl)thiazol-2-yl)phenyl)-2,5-dimethylbenzenesulfonamide]
5 | 1000 nM | Cc1cc(S(=O)(=O)Nc2csc(-c3ccnn3C)n2)c(C)cc1Cl [Example 182, 4-chloro-2,5-dimethyl-N-(2-(1-methyl-1H-pyrazol-5-yl)thiazol-4-yl)benzenesulfonamide]
6 | 6000 nM | Cc1cc(S(=O)(=O)Nc2cccc(-c3ncc(C4CC4)s3)c2)c(C)cc1Cl [Example 76, 4-chloro-N-(3-(5-cyclopropylthiazol-2-yl)phenyl)-2,5-dimethylbenzenesulfonamide]
